Data: US20230088704A1, “A PHARMACEUTICAL COMBINATION FOR THE TREATMENT OF A CANCER” (ABILITY PHARMACEUTICALS S.L., priority 2020, published 2023)

Experiments:
MiaPaca2 cells = assay: Cytotoxicity against MiaPaca2 cells; type: cell-based, human; details: previous results
U87MG cells [1] = assay: Human glioblastoma orthotopic xenograft, ABTL0812 with temozolomide; type: in vivo, nude mice; details: ABTL0812 oral 240 mg/kg 5 days/week; temozolomide oral 32 mg/Kg first 5 days
Method: Methods: Mice were intra-cerebrally injected with luciferase transfected U87MG cells. Animals were randomized 5 days after cell inoculation and treatments started. ABTL0812 was administered orally at 240 mg/kg 5 days/week; and temozolomide orally at 32 mg/Kg the first 5 days. Tumors were measured by quantification of bioluminescence intensity (BLI) of the region of interest.

[2] = test system: Human pancreatic cancer cells; assay: Immunogenic cell death (ICD) hallmarks; type: cell-based; details: ABTL0812 0 to 150 μM; 24 hours
Method: Methods: Human pancreatic cancer cells were treated with increasing concentrations of ABTL0812 (ranging from 0 to 150 μM) for 24 hours, and ICD hallmarks extracellular Hmgb1 and ATP, surface Calreticulin, and caspases 3 and 8 activation, were evaluated by ELISA (Hmgb1 and ATP), flow cytometry (Calreticulin) and immunoblotting (Caspases 3 and 8). For extracellular Hmgb1 and ATP, culture media from ABTL0812 treated cells were collected and incubated with specific antibodies for further detection using colorimetric assay. For surface Calreticulin, cancer cells were collected and incubated with specific antibody for further detection using flow cytometry. For Caspase 3 and 8 activation, cancer cells were collected, protein lysate obtained, incubated with specific antibodies for further detection using immunoblotting and finally quantified using densitometry.

[3] = test system: THP-1 human macrophage cells; assay: M1/M2 macrophage polarization, marker mRNA by RT-qPCR; type: cell-based
Method: Methods: THP-1 monocytes growing in suspension are differentiated to macrophages by incubation with PMA for 24 hours, inducing their attachment to the plates. Once THP-1 are differentiated to macrophages, these are polarized to M1 by incubation with LPS for 6 or 24 hours in the presence of ABTL0812 (50 or 100 μM). In parallel, differentiated macrophages are polarized to M2 by incubation with IL-4 and IL-13 for 24 hours in the presence of ABTL0812 (50 μM). Then, polarized macrophages are lysed, total RNA extracted, retrotranscribed to cDNA and mRNA levels of IL1β, TNFα (M1 markers) and […] (M2 marker) were evaluated by RT-qPCR using specific probes.

U87MG cells [4] = assay: Human glioblastoma subcutaneous xenograft, ABTL0812 with radiotherapy; type: in vivo, nude mice
Method: (§1) Methods: Mice were injected subcutaneously with 1×10^6 U87MG or T98G cells in each flank to induce tumor formation. […] ABTL0812 was administered orally at 240 mg/kg 5 days/week and radiotherapy as single dose of 4 Gy administered at day 3.

T98G cells = assay: as above; type: in vivo, nude mice
Method: as §1

[5] = test system: Ishikawa endometrial cancer cells; assay: Co-culture of ABTL0812-treated cancer cells with activated T cells, MTT; type: cell-based, human; details: ABTL0812 50 μM 6 hours, then co-culture with activated T lymphocytes 24 hours
Method: Methods: human PBMCs were purified from peripheral blood of healthy donors using Ficoll and cultured in vitro. Human T cells were activated by incubation with IL-2 and CD3 and CD28 antibodies for 10 days. In parallel, Ishikawa endometrial cancer cells were treated with ABTL0812 at 50 μM for 6 hours and then co-cultured with activated T lymphocytes for 24 hours. Then, cell viability was assessed by the MTT assay. Untreated Ishikawa cells were used as controls.

Ishikawa cells = type: in vivo; details: ABTL0812 oral 120 mg/kg/day; Doxorubicin 5 mg/kg i.p. once a week
Method: Methods: Mice were injected with 4×10^6 Ishikawa cells in one flank to induce tumor formation. […] ABTL0812 was administered by the oral route at 120 mg/kg/day. Doxorubicin 5 mg/kg was administered intra-peritoneally once a week. Tumor volume and body weight were monitored 3 times a week.

[6] = test system: human immortalized THP-1 and human primary macrophage cells; assay: M1/M2 polarization of immortalized and primary macrophages, RT-qPCR; type: cell-based
Method: Methods: THP-1 monocytes growing in suspension were differentiated to macrophages by incubation with PMA for 24 hours, inducing their attachment to the plates. Monocytes were differentiated to macrophages incubating with M-CSF1 at 20 ng/mL for 7 days. In parallel, whole blood was collected from healthy donors, and circulating monocytes were purified using immunomagnetic separation. Monocytes were selected using anti-CD14 antibodies bound to magnetic beads, which were retained in the magnetic column and further eluted for culturing in vitro. After obtaining activated macrophages (immortalized and primary), these were polarized to M1 by incubation with LPS+IFNγ for 6 hours in the presence of ABTL0812 at 100 μM. In parallel, differentiated macrophages were polarized to M2 by incubation with IL-4 and IL-13 for 24 hours in the presence of ABTL0812 (100 μM). Afterwards, polarized macrophages were lysed, total RNA extracted, retrotranscribed to cDNA and mRNA levels of IL1β, TNFα (M1 markers) and IL-10 (M2 marker) were evaluated by RT-qPCR using specific probes.

SK-N-BE(2) cells = assay: Cell viability (crystal violet), ABTL0812 with temozolomide; type: cell-based; details: ABTL0812 30 μM + temozolomide 500, 1000, 1500 μM; 48 hours; 0.5% FBS
Method: (§2) Methods: LA1-5S and SK-N-BE(2) cells were incubated with increasing concentrations of temozolomide (500 μM, 1000 μM and 1500 μM), and subIC50 fixed concentrations of ABTL0812. (30 μM for SK-N-BE(2) and 40 μM for LA1-5S). Cells were treated for 48 hours in IMDM with 0.5% FBS. Cell viability was evaluated by crystal violet assay. Different doses were assessed in six replicates and the results shown are the average of two independent experiments. Statistical analyses were performed according to the T-Test principle with GraphPad Prism® 5.0 software.

LA1-5S cells = assay: as above; type: cell-based; details: ABTL0812 40 μM + temozolomide 500, 1000, 1500 μM; 48 hours; 0.5% FBS
Method: as §2

[7] = differentiated macrophages without polarizing, ABTL0812 alone
[8] = macrophages polarized to M1 (LPS 6 or 24 hours), ABTL0812 50 or 100 μM
[9] = ABTL0812 oral 240 mg/kg 5 days/week
[10] = ABTL0812 oral 240 mg/kg 5 days/week + radiotherapy single dose 4 Gy at day 3
[11] = macrophages polarized to M1 (LPS+IFNγ 6 hours), ABTL0812 100 μM

For CCCCC/C=C\C/C=C\CCCCCCC(O)C(=O)O (stereo not shown) [ABTL0812, COOH—CHOH—(CH2)6—(CH═CH—CH2)2—(CH2)3—CH3], the IC50 (MiaPaca2 cells) was 50 µM, the disease-free survival (U87MG cells [1]) was “significantly increased the disease-free survival” and the “Caspase 3 and 8 activation” value [2] was “dose dependent increase”. For the same compound, the “extracellular ATP” value [2] was “dose dependent increase”, the “extracellular Hmgb1” value [2] was “dose dependent increase” and the “surface Calreticulin” value [2] was “dose dependent increase”. The “expression of IL-1β” value [3, 7] was “significantly induce the expression of IL-1β”, the “IL-1β mRNA levels” value [3, 8] was “significantly potentiates” and the “TNFα mRNA levels” value [3, 8] was “significantly potentiates”. For the same compound, the “IL-10 mRNA levels” value ([3]; macrophages polarized to M2 (IL-4 and IL-13, 24 hours), ABTL0812 50 μM) was “significantly suppresses”, the “growth of subcutaneous tumors, single agent” value (U87MG cells [4]; [9]) was “significantly decreased the growth of glioblastoma subcutaneous tumors” and the “growth of subcutaneous tumors, combination with radiotherapy” value (U87MG cells [4]; [10]) was “significantly more efficacious than ABTL0812 or radiotherapy as single treatments”. The “growth of subcutaneous tumors, single agent” value (T98G cells; [9]) was “significantly decreased the growth of glioblastoma subcutaneous tumors”, the “growth of subcutaneous tumors, combination with radiotherapy” value (T98G cells; [10]) was “significantly more efficacious than ABTL0812 or radiotherapy as single treatments” and the “cytotoxic effect of activated T cells on cancer cells” value [5] was “potentiates the cytotoxic effect of activated T cells”. For the same compound, the tumor volume (Ishikawa cells) was “significantly reduced tumor volume”, the “expression of IL-1β” value [6, 7] was “significantly induces the expression of IL-1β” and the “IL-1β mRNA levels” value [6, 11] was “significantly potentiates”. For the same compound, the “TNFα mRNA levels” value [6, 11] was “significantly potentiates”, the “IL-10 mRNA levels” value ([6]; macrophages polarized to M2 (IL-4 and IL-13, 24 hours), ABTL0812 100 μM) was “significantly suppresses” and the “temozolomide cytotoxicity on addition of ABTL0812” value (SK-N-BE(2) cells) was “increased temozolomide cytotoxicity”. For the same compound, the “temozolomide cytotoxicity on addition of ABTL0812” value (LA1-5S cells) was “increased temozolomide cytotoxicity”.
